From patent US20240101540A1, “TARGETED PROTEIN DEGRADATION OF PARP14 FOR USE IN THERAPY” (Ribon Therapeutics, Inc., priority 2022, published 2024)
Where a name gives a salt, the structure may show the parent alone. Read-outs that look alike come from different tables or passages of the source.

Target: T1, HiBiT tagged PARP14 (Homo sapiens, UniProt Q460N5)
T1 construct: engineered to contain a HiBiT tag on both alleles of the PARP14 gene; endogenous in cells; host or cells: Jurkat cells stably transfected with LgBiT (Promega), PARP14 locus edited by CRISPR/Cas9
T1 sequence (Q460N5 whole entry): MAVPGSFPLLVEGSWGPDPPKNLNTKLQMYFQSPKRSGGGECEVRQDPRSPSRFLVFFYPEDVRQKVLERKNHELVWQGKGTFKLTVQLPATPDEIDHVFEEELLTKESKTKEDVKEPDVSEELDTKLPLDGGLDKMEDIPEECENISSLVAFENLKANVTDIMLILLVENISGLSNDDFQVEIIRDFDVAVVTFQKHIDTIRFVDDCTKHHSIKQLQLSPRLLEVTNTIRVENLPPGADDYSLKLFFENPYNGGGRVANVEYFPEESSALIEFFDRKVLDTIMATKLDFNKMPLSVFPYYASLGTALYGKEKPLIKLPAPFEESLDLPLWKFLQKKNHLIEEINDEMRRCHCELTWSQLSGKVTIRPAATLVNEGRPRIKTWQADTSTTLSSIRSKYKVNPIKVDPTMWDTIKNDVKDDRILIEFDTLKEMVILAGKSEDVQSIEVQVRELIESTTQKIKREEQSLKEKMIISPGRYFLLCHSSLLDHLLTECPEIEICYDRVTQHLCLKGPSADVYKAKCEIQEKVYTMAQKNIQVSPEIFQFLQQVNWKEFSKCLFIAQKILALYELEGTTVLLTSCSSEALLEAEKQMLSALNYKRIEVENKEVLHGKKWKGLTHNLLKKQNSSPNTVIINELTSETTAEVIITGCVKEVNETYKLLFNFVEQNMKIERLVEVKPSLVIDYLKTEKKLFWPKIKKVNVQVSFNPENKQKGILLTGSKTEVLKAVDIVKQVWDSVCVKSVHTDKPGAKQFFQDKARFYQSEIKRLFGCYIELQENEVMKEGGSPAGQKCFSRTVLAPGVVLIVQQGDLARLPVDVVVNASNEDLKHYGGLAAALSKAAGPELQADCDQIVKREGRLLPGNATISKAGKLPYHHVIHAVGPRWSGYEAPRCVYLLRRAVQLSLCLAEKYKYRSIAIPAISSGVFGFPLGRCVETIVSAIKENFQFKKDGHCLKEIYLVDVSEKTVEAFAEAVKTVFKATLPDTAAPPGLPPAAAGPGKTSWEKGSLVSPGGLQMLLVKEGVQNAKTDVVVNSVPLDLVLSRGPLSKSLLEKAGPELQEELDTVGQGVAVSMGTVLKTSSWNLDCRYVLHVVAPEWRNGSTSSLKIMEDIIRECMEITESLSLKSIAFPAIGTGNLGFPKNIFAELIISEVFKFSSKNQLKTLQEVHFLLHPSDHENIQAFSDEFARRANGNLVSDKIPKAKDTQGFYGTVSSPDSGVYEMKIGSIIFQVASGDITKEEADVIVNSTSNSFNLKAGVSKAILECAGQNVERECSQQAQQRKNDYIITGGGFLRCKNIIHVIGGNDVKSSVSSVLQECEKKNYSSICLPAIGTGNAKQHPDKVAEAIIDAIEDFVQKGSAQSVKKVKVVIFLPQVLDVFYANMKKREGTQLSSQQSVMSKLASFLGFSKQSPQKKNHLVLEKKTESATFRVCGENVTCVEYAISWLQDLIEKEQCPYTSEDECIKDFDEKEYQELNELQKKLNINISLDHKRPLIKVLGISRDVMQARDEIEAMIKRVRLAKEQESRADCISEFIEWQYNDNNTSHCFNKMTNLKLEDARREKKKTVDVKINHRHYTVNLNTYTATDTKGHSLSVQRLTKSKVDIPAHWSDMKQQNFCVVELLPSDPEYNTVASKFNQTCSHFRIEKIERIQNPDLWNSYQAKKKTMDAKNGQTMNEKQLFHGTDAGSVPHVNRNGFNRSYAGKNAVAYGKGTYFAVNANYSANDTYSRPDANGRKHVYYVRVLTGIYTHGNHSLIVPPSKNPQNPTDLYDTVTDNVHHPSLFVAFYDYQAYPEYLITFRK
Assay: HiBiT assay for the degradation of PARP14 (HiBiT tagged PARP14 in LgBiT expressing Jurkat cells, 2 or 24 hours)
Assay type: cell-based
Conditions: Assay B (Example B): HiBiT tagged PARP14 degradation in LgBiT expressing Jurkat cells
Experimental: Jurkat cells stably transfected with LgBiT (Promega) were engineered to contain a HiBiT tag on both alleles of the PARP14 gene (Genbank Accession Number: NM_017554) via CRISPR/Cas9 editing. The HiBiT tag is an 11 amino acid tag created by Promega that associates with LgBiT protein to form the NanoLuc® tag on the C-terminus of PARP14. Clones were isolated and confirmed for the HiBiT tag via Sanger sequencing.
Degradation of PARP14 protein was assessed by measuring the luminescence of the HiBiT tag associating with the LgBiT protein as a proxy for the PARP14 protein.
Jurkat cells were diluted to 250,000 cells per mL and then added to assay plate (Corning 3574) using a Multidrop (Thermo Fisher) to add 20 μL per well of the 384 well plate, resulting in 5,000 cells per well. 20 nL of a dose response curve diluted in DMSO of each test compound was added to the cell plate using a Mosquito (TTP Labtech) and the plate was incubated at 37° C. for 2 or 24 hours. Assay plate was brought to room temperature then 5 μL per well of Live Cell Substrate (Promega) was added to the plate. Luminescence was measured on an Envision (Perkin Elmer).
The average DMSO was calculated from 32 wells containing 0.1% DMSO only in columns 12 and 24 of the assay plate. The % of DMSO values were calculated as described below: […]
The % of DMSO values were plotted as a function of compound concentration and the following 4-parameter fit was applied to derive the DC50 values:
where top, bottom, and Hill Coefficient are allowed to float. Y is the % of DMSO and X is the compound concentration.
DC50 data for the Example compounds is provided below in Table 2 (“+” is ≤0.03 μM; “++” is ≥0.03 μM).

SMILES | DC50 (read-out: DC50) | DC50
O=C1CCC(Nc2ccc(N3CCN(CCN4CCC(COc5cc(F)c6c(=O)[nH]c(COC7CCOCC7)nc6c5)CC4)CC3)c(F)c2)C(=O)N1 (racemic) [Example 99, 3-((3-fluoro-4-(4-(2-(4-(((5-fluoro-4-oxo-2-(((tetrahydro-2H-pyran-4-yl)oxy)methyl)-3,4-dihydroquinazolin-7-yl)oxy)methyl)piperidin-1-yl)ethyl)piperazin-1-yl)phenyl)amino)piperidine-2,6-dione] | – | < 30 nM
O=C1CCC(Nc2ccc(N3CCN(CCN4CCC(COc5cc(F)c6c(=O)[nH]c(COC7CCOCC7)nc6c5)CC4)CC3)c(F)c2)C(=O)N1 (single isomer, unassigned) [Example 99a, 3-((3-fluoro-4-(4-(2-(4-(((5-fluoro-4-oxo-2-(((tetrahydro-2H-pyran-4-yl)oxy)methyl)-3,4-dihydroquinazolin-7-yl)oxy)methyl)piperidin-1-yl)ethyl)piperazin-1-yl)phenyl)amino)piperidine-2,6-dione] | < 30 nM | –
O=C1CCC(Nc2ccc(N3CCN(CCN4CCC(COc5cc(F)c6c(=O)[nH]c(COC7CCOCC7)nc6c5)CC4)CC3)c(F)c2)C(=O)N1 (single isomer, unassigned) [Example 99b, 3-((3-fluoro-4-(4-(2-(4-(((5-fluoro-4-oxo-2-(((tetrahydro-2H-pyran-4-yl)oxy)methyl)-3,4-dihydroquinazolin-7-yl)oxy)methyl)piperidin-1-yl)ethyl)piperazin-1-yl)phenyl)amino)piperidine-2,6-dione] | < 30 nM | –
O=C1CCC(Nc2ccc(N3CCC(N4CC(N5CCC(COc6cc(F)c7c(=O)[nH]c(CSC8CCOCC8)nc7c6)CC5)C4)CC3)c(F)c2)C(=O)N1 (single isomer, unassigned) [Example 116a, 3-((3-fluoro-4-(4-(3-(4-(((5-fluoro-4-oxo-2-(((tetrahydro-2H-pyran-4-yl)thio)methyl)-3,4-dihydroquinazolin-7-yl)oxy)methyl)piperidin-1-yl)azetidin-1-yl)piperidin-1-yl)phenyl)amino)piperidine-2,6-dione] | < 30 nM | –
O=C1CCC(Nc2ccc(N3CCC(N4CC(N5CCC(COc6cc(F)c7c(=O)[nH]c(CSC8CCOCC8)nc7c6)CC5)C4)CC3)c(F)c2)C(=O)N1 (single isomer, unassigned) [Example 116b, 3-((3-fluoro-4-(4-(3-(4-(((5-fluoro-4-oxo-2-(((tetrahydro-2H-pyran-4-yl)thio)methyl)-3,4-dihydroquinazolin-7-yl)oxy)methyl)piperidin-1-yl)azetidin-1-yl)piperidin-1-yl)phenyl)amino)piperidine-2,6-dione] | < 30 nM | –
O=C1CCC(Nc2ccc(N3CCC(N4CCC(COc5cc(F)c6c(=O)[nH]c(CCC7CCOCC7)nc6c5)CC4)CC3)c(F)c2)C(=O)N1 (single isomer, unassigned) [Example 117a, 3-((3-fluoro-4-(4-(((5-fluoro-4-oxo-2-(2-(tetrahydro-2H-pyran-4-yl)ethyl)-3,4-dihydroquinazolin-7-yl)oxy)methyl)-[1,4′-bipiperidin]-11′-yl)phenyl)amino)piperidine-2,6-dione] | < 30 nM | –
O=C1CCC(Nc2ccc(N3CCC(N4CCC(COc5cc(F)c6c(=O)[nH]c(CCC7CCOCC7)nc6c5)CC4)CC3)c(F)c2)C(=O)N1 (single isomer, unassigned) [Example 117b, 3-((3-fluoro-4-(4-(((5-fluoro-4-oxo-2-(2-(tetrahydro-2H-pyran-4-yl)ethyl)-3,4-dihydroquinazolin-7-yl)oxy)methyl)-[1,4′-bipiperidin]-11′-yl)phenyl)amino)piperidine-2,6-dione] | < 30 nM | –
O=C1CCC(Nc2ccc(N3CCC(N4CC(N5CCC(COc6cc(F)c7c(=O)[nH]c(COC8CCOCC8)nc7c6)CC5)C4)CC3)c(F)c2)C(=O)N1 (single isomer, unassigned) [Example 136a, 3-((3-fluoro-4-(4-(3-(4-(((5-fluoro-4-oxo-2-(((tetrahydro-2H-pyran-4-yl)oxy)methyl)-3,4-dihydroquinazolin-7-yl)oxy)methyl)piperidin-1-yl)azetidin-1-yl)piperidin-1-yl)phenyl)amino)piperidine-2,6-dione] | < 30 nM | –
Cn1c(=O)n(C2CCC(=O)NC2=O)c2ccc(N3CCN(CCN4CCC(COc5cc(F)c6c(=O)[nH]c(CSC7CCOCC7)nc6c5)CC4)CC3)cc21 (centres unmarked) [Example 91, 3-(5-(4-(2-(4-(((5-fluoro-4-oxo-2-(((tetrahydro-2H-pyran-4-yl)thio)methyl)-3,4-dihydroquinazolin-7-yl)oxy)methyl)piperidin-1-yl)ethyl)piperazin-1-yl)-3-methyl-2-oxo-2,3-dihydro-1H-benzo[d]imidazol-1-yl)piperidine-2,6-dione] | < 30 nM | –
O=C1CCC(Nc2ccc3c(c2)CN(CCN2CCC(COc4cc(F)c5c(=O)[nH]c(CSC6CCOCC6)nc5c4)CC2)C3)C(=O)N1 (centres unmarked) [Example 92, 3-((2-(2-(4-(((5-fluoro-4-oxo-2-(((tetrahydro-2H-pyran-4-yl)thio)methyl)-3,4-dihydroquinazolin-7-yl)oxy)methyl)piperidin-1-yl)ethyl)isoindolin-5-yl)amino)piperidine-2,6-dione] | < 30 nM | –
O=C1CCC(NC(=O)c2ccc(N3CCN(CCN4CCC(COc5cc(F)c6c(=O)[nH]c(CSC7CCOCC7)nc6c5)CC4)CC3)cc2F)C(=O)N1 (centres unmarked) [Example 93, N-(2,6-dioxopiperidin-3-yl)-2-fluoro-4-(4-(2-(4-(((5-fluoro-4-oxo-2-(((tetrahydro-2H-pyran-4-yl)thio)methyl)-3,4-dihydroquinazolin-7-yl)oxy)methyl)piperidin-1-yl)ethyl)piperazin-1-yl)benzamide] | < 30 nM | –
O=C1CCC(Nc2cc(F)c(N3CCN(CCN4CCC(COc5cc(F)c6c(=O)[nH]c(CSC7CCOCC7)nc6c5)CC4)CC3)c(F)c2)C(=O)N1 (centres unmarked) [Example 98, 3-((3,5-difluoro-4-(4-(2-(4-(((5-fluoro-4-oxo-2-(((tetrahydro-2H-pyran-4-yl)thio)methyl)-3,4-dihydroquinazolin-7-yl)oxy)methyl)piperidin-1-yl)ethyl)piperazin-1-yl)phenyl)amino)piperidine-2,6-dione formate] | < 30 nM | –

Further lines, with some results ahead:

DC50 (read-out: DC50) | SMILES | DC50
< 30 nM | O=C1CCC(Nc2ccc(N3CCN(CCN4CCC(COc5cc(F)c6c(=O)[nH]c(CSC7CCOCC7)nc6c5)CC4)CC3)c(F)c2)C(=O)N1 (single isomer, unassigned) [Example 64a, 3-((3-fluoro-4-(4-(2-(4-(((5-fluoro-4-oxo-2-(((tetrahydro-2H-pyran-4-yl)thio)methyl)-3,4-dihydroquinazolin-7-yl)oxy)methyl)piperidin-1-yl)ethyl)piperazin-1-yl)phenyl)amino)piperidine-2,6-dione] | –
< 30 nM | O=C1CCC(Nc2ccc(N3CCN(CCN4CCC(COc5cc(F)c6c(=O)[nH]c(CSC7CCOCC7)nc6c5)CC4)CC3)c(F)c2)C(=O)N1 (single isomer, unassigned) [Example 64b, 3-((3-fluoro-4-(4-(2-(4-(((5-fluoro-4-oxo-2-(((tetrahydro-2H-pyran-4-yl)thio)methyl)-3,4-dihydroquinazolin-7-yl)oxy)methyl)piperidin-1-yl)ethyl)piperazin-1-yl)phenyl)amino)piperidine-2,6-dione] | –
< 30 nM | O=C1CCC(Nc2ccc(N3CCC(N4CC(N5CCC(COc6cc(F)c7c(=O)[nH]c(COC8CCOCC8)nc7c6)CC5)C4)CC3)c(F)c2)C(=O)N1 (single isomer, unassigned) [Example 136b, 3-((3-fluoro-4-(4-(3-(4-(((5-fluoro-4-oxo-2-(((tetrahydro-2H-pyran-4-yl)oxy)methyl)-3,4-dihydroquinazolin-7-yl)oxy)methyl)piperidin-1-yl)azetidin-1-yl)piperidin-1-yl)phenyl)amino)piperidine-2,6-dione] | –
< 30 nM | O=C1CCC(Nc2ccc(N3CCN(CCN4CCC(COc5cc(F)c6c(=O)[nH]c(CSC7CCOCC7)nc6c5)CC4)CC3)cc2F)C(=O)N1 (centres unmarked) [Example 97, 3-((2-fluoro-4-(4-(2-(4-(((5-fluoro-4-oxo-2-(((tetrahydro-2H-pyran-4-yl)thio)methyl)-3,4-dihydroquinazolin-7-yl)oxy)methyl)piperidin-1-yl)ethyl)piperazin-1-yl)phenyl)amino)piperidine-2,6-dione] | –
< 30 nM | O=C1CCC(Nc2ccc(N3CCN(CCN4CCC(COc5cc(F)c6c(=O)[nH]c(CCC7CCOCC7)nc6c5)CC4)CC3)c(F)c2)C(=O)N1 (centres unmarked) [Example 100, 3-((3-fluoro-4-(4-(2-(4-(((5-fluoro-4-oxo-2-(2-(tetrahydro-2H-pyran-4-yl)ethyl)-3,4-dihydroquinazolin-7-yl)oxy)methyl)piperidin-1-yl)ethyl)piperazin-1-yl)phenyl)amino)piperidine-2,6-dione] | –
